Laboratory results published in patent US6274559A, “Liver protection or treatment agents comprising asiatic acid derivatives as the active component” (Dong Kook Pharmaceutical Co., Ltd., priority 1997, dated 2001).

Key:
[1] = test system: liver cell (galactosamine-induced toxicity); experiment: Protection effect against galactosamine-induced toxicity of liver cell (GPT activity, relative protection); assay type: cell-based, male Wister rats; conditions: 1.5 mM galactosamine, 14 h, healthy liver cell = 100%, toxicity = 0%; for Relative liver cell protection (%) at 5 µg/mL / Relative liver cell protection (%) at 50 µg/mL: Rattus norvegicus
Source text: To investigate the protection effect of the compounds of the formula 1 of this invention, i. e. 2-oxoasiatic acid, 2-methylasiatic acid, methyl 2α-acetoxyurs-12-en-23-al-3-on-28-oate, tetrahydropyranyl 3β,23-diacetoxyurs-12-en-28-oate, ethoxymethyl 2α-hydroxy-3β,23-isopropylidendioxyurs-12-en-28-oate, methyl 2,3-β-epoxy-12-en-23-carbomethoxyurs-28-oate, methyl 2,3-β-epoxy-12-en-23-benzamidours-28-oate, 1-ethoxyethyl asiatate and 2',3',4',6'-tetra-O-acetylglucosyl 2,3,23-tri-O-acetylurs-28-oate, against galactosamine-induced toxicity of liver cell, the following experiment was performed.
(§1) As experimental animals, male Wister rats weighing between 150~200 g were used. All rats were fasted during 18~24 h, and then the isolation of liver cells was performed by using the two-step collagenase flow-through method [D. M. Crisp and C. I. Pogson, Biochem., 126, 1009 (1972)], which is a form that the Berry & Friend method [M. N. Berry and D. S. Friend, J. Cell, Biol., 43, 5006 (1969)] is a little modified.
(§2) The isolated liver cells were incubated in a normal incubation medium for 1.5 h, and then more incubated in 1.5 mM galactosamine-containing incubation medium for 14 h to induce liver cells to get into the toxicity of galactosamine [Y. Kris, M. Tohkin and H. Hikino, J. Nat. Prod., 46, 841 (1983)].
(§3) These liver cells getting into toxicity induced by said methods were incubated separately in the incubation mediums containing said compounds of 5 μg/ml and 50 μg/ml. Then, withdrawing the incubation medium, the activity of glutamic pyruvic transaminase (GPT) was determined by the Reitman-Frankel method [S. Reitman and S. Frankel, Am, J. Cli. Pathol., 28, 56 (1957)]. The GPT value of healthy liver cell was defined as 100%, and that of liver cell getting into toxicity induced by said methods was defined as 0%. At the basis of said definition, the GPT values of liver cells recovered from galactosamine-induced toxicity by the compounds were converted into relative protections (%) to show the protection effect of liver cell against the toxicity by the compounds.

[2] = test system: liver cell (carbon tetrachloride-induced toxicity); experiment: Protection effect against carbon tetrachloride-induced toxicity of liver cell (GPT activity, relative protection); assay type: cell-based, male Wister rats; conditions: 10 mM carbon tetrachloride, 1.5 h; for Relative liver cell protection at 5 µg/mL / Relative liver cell protection at 50 µg/mL: Rattus norvegicus
Description: as §1, §3
To investigate the protection effect of the compounds of the formula 1 of this invention against carbon tetrachloride-induced toxicity of liver cell, the following experiment was performed.
(§4) The experiment was performed in the same manner as in Experimental example 1, except that carbon tetrachloride was used by following method to induce liver cells to get into the toxicity.
(§5) The isolated liver cells were incubated in a normal incubation medium for 24 h, and then more incubated in 10 mM carbon tetrachloride-containing incubation medium for 1.5 h to induce liver cells to get into the toxicity of carbon tetrachloride [Y. Kiso, Y. Suzuki and H. Hikino, Planta. Med., 49, 222 (1983)].

[3] = test system: liver cell (carbon tetrachloride-induced toxicity); experiment: Concentration dependency of protection effect of liver cell against carbon tetrachloride-induced toxicity; assay type: cell-based, male Wister rats
Description: as §1, §3, §4, §5
(§6) To investigate the concentration dependency of the protection effect of the compounds of the formula 1 of this invention, i. e. 2-oxoasiatic acid, against carbon tetrachloride-induced toxicity of liver cell, the experiment was performed in the same manner as in Experimental example 2, except that the compound concentrations tested were 1, 10, 50, 100 and 200 μM.

in vivo = conditions: mouse, in vivo, ip
Description: (§7) Administering 2-oxoasiatic acid of various concentrations to male ICR mice weighing between 20~25 g by peritoneal injection, the toxicity of 2oxoasiatic acid was tested.

male ICR mice = experiment: Safety study through toxicity test in mice by peritoneal injection
Description: as §7

[4] = test system: liver cell (galactosamine-induced toxicity); experiment: Concentration dependency of protection effect against galactosamine-induced toxicity of liver cell; assay type: cell-based, male Wister rats; conditions: for Relative liver cell protection (%) at 1 µM / Relative liver cell protection (%) at 10 µM / Relative liver cell protection (%) at 50 µM / Relative liver cell protection (%) at 100 µM / Relative liver cell protection (%) at 200 µM: Rattus norvegicus
Description: as §1, §2, §3
as §6, with “investigate” for “investigate the”, “acid, 2-methylasiatic acid and methyl 2α-acetoxyurs-12-en-23-al-3-on-28-oate,” for “acid,”, “galactosamine-induced” for “carbon tetrachloride-induced”, “1,” for “2,”

[5] = 5 μg/ml of compound concentration
[6] = 50 μg/ml of compound concentration

What does the source list for “methyl 2,3-β-epoxy-12-en-23-benzamidours-28-oate”?
Relative liver cell protection (%) [1, 5]: 38%; Relative liver cell protection (%) [1, 6]: 40%; Relative liver cell protection (%) [2, 5]: 0%; Relative liver cell protection (%) [2, 6]: 23%

For C[C@H]1[C@H](C)CC[C@]2(C(=O)O)CC[C@]3(C)C(=CC[C@@H]4[C@@]5(C)CC(=O)[C@H](O)[C@@](C)(CO)[C@@H]5CC[C@]43C)[C@H]12 [2-Oxoasiatic acid, 2-oxoasiatic acid], which Relative liver cell protection (%) at 5 µg/mL [1, 5] is on record?
The Relative liver cell protection (%) at 5 µg/mL was 15%.

What about the Relative liver cell protection (%) at 50 µg/mL [1, 6] of the same molecule?
Its Relative liver cell protection (%) at 50 µg/mL is 62%.

What about the relative liver cell protection at 1 µM ([3]; Rattus norvegicus, compound 1 μM) of the same molecule?
Its relative liver cell protection at 1 µM is 1.6%.

What about the relative liver cell protection at 10 µM ([3]; Rattus norvegicus, compound 10 μM) of the same molecule?
Its relative liver cell protection at 10 µM is 5%.

What about the relative liver cell protection at 50 µM ([3]; Rattus norvegicus, compound 50 μM) of the same molecule?
Its relative liver cell protection at 50 µM is 3.3%.

And the relative liver cell protection at 100 µM ([3]; Rattus norvegicus, compound 100 μM)?
The relative liver cell protection at 100 µM was 30.9%.

What about the relative liver cell protection at 200 µM ([3]; Rattus norvegicus, compound 200 μM) of the same molecule?
The relative liver cell protection at 200 µM was 48.1%.

What about the “concentration dependency of protection effect” value (from here on “concentration dependency”) ([3]; concentration range of 1~200 μM) of the same molecule?
Its value is “the greater was the protection effects”.

What about the LD50 (in vivo) of the same molecule?
Its LD50 is 750 mg/kg.

And the opisthotonus (male ICR mice; male ICR mice, peritoneal injection, fatal dose)?
The opisthotonus was “opisthotonus was showed at a fatal dose”.

What about the “body weight of surviving mice” value (male ICR mice; mouse, in vivo) of the same molecule?
Its value is “did not change”.

What about the motor activity (male ICR mice; mouse, in vivo) of the same molecule?
The motor activity was “motor activity was decreased dose-dependently”.

What about the “pilo-erection, tachypnea and convulsion” value (male ICR mice; mouse, in vivo) of the same molecule?
Its value is “induced dose-dependently”.

And the “recovery of surviving mice” value (male ICR mice; mouse, in vivo)?
The value was “rapid recovery”.

What about the type of toxicity (male ICR mice; mouse, in vivo) of the same molecule?
Its type of toxicity is “typical toxicity of central nervous system”.

What about the “concentration dependency” value ([4]; 100 and 200 μM) of the same molecule?
Its value is “the protection effects of them rapidly decreased”.

And the Relative liver cell protection (%) at 1 µM ([4]; compound 1 μM)?
The Relative liver cell protection (%) at 1 µM was 29.8%.

What about the Relative liver cell protection (%) at 10 µM ([4]; compound 10 μM) of the same molecule?
Its Relative liver cell protection (%) at 10 µM is 43.2%.

And the Relative liver cell protection (%) at 50 µM ([4]; compound 50 μM)?
The Relative liver cell protection (%) at 50 µM was 50.4%.

And the Relative liver cell protection (%) at 100 µM ([4]; compound 100 μM)?
Its Relative liver cell protection (%) at 100 µM is 25.3%.

What about the Relative liver cell protection (%) at 200 µM ([4]; compound 200 μM) of the same molecule?
Its Relative liver cell protection (%) at 200 µM is 8.5%.

And the “concentration dependency” value ([4]; range of 1~50 μM)?
Its value is “the greater were the protection effects”.

And the Relative liver cell protection at 5 µg/mL [2, 5]?
The Relative liver cell protection at 5 µg/mL was 30%.

What about the Relative liver cell protection at 50 µg/mL [2, 6] of the same molecule?
Its Relative liver cell protection at 50 µg/mL is 44%.

Which Relative liver cell protection (%) at 5 µg/mL [1, 5] does the source give for CCOCOC(=O)[C@]12CC[C@@H](C)[C@H](C)[C@H]1C1=CC[C@@H]3[C@@]4(C)C[C@@H](O)[C@@H]5OC(C)(C)OC[C@@]5(C)[C@@H]4CC[C@@]3(C)[C@]1(C)CC2 [ethoxymethyl 2α-hydroxy-3β,23-isopropylidendioxyurs-12-en-28-oate] here?
Its Relative liver cell protection (%) at 5 µg/mL is 66%.

What about the Relative liver cell protection (%) at 50 µg/mL [1, 6] of the same molecule?
The Relative liver cell protection (%) at 50 µg/mL was 45%.

And the Relative liver cell protection at 5 µg/mL [2, 5]?
Its Relative liver cell protection at 5 µg/mL is 15%.

What about the Relative liver cell protection at 50 µg/mL [2, 6] of the same molecule?
Its Relative liver cell protection at 50 µg/mL is 5%.

With “methyl 2,3-β-epoxy-12-en-23-carbomethoxyurs-28-oate” as the molecule, how does the “Relative liver cell protection (%)” value [1, 5] read?
Its value is 26%.

What about the “Relative liver cell protection (%)” value [1, 6] of the same molecule?
The value was 53%.

What about the “Relative liver cell protection (%)” value [2, 5] of the same molecule?
The value was 0%.

What about the “Relative liver cell protection (%)” value [2, 6] of the same molecule?
Its value is 0%.

Which Relative liver cell protection (%) at 5 µg/mL [1, 5] does the source give for CC(=O)OC[C@@]1(C)[C@@H]2CC[C@]3(C)[C@H](CC=C4[C@@H]5[C@@H](C)[C@H](C)CC[C@]5(C(=O)OC5CCCCO5)CC[C@]43C)[C@@]2(C)CC[C@@H]1OC(C)=O (stereo partly drawn) [tetrahydropyranyl 3β,23-diacetoxyurs-12-en-28-oate] here?
Its Relative liver cell protection (%) at 5 µg/mL is 58%.

What about the Relative liver cell protection (%) at 50 µg/mL [1, 6] of the same molecule?
Its Relative liver cell protection (%) at 50 µg/mL is 66%.

What about the Relative liver cell protection at 5 µg/mL [2, 5] of the same molecule?
Its Relative liver cell protection at 5 µg/mL is 42%.

What about the Relative liver cell protection at 50 µg/mL [2, 6] of the same molecule?
The Relative liver cell protection at 50 µg/mL was 30%.

For CCOC(C)OC(=O)[C@]12CC[C@@H](C)[C@H](C)[C@H]1C1=CC[C@@H]3[C@@]4(C)C[C@@H](O)[C@H](O)[C@@](C)(CO)[C@@H]4CC[C@@]3(C)[C@]1(C)CC2 (stereo partly shown) [1-Ethoxyethyl asiatate, 1-ethoxyethyl asiatate], which Relative liver cell protection (%) at 5 µg/mL [1, 5] is on record?
Its Relative liver cell protection (%) at 5 µg/mL is 66%.

What about the Relative liver cell protection (%) at 50 µg/mL [1, 6] of the same molecule?
Its Relative liver cell protection (%) at 50 µg/mL is 0%.

And the Relative liver cell protection at 5 µg/mL [2, 5]?
Its Relative liver cell protection at 5 µg/mL is 8%.

What about the Relative liver cell protection at 50 µg/mL [2, 6] of the same molecule?
Its Relative liver cell protection at 50 µg/mL is 7%.

Which results are given for COC(=O)[C@]12CC[C@@H](C)[C@H](C)[C@H]1C1=CC[C@@H]3[C@@]4(C)C[C@@H](OC(C)=O)C(=O)[C@@](C)(C=O)[C@@H]4CC[C@@]3(C)[C@]1(C)CC2 [methyl 2α-acetoxyurs-12-en-23-al-3-on-28-oate]?
Relative liver cell protection (%) at 5 µg/mL [1, 5]: 42%; Relative liver cell protection (%) at 50 µg/mL [1, 6]: 80%; concentration dependency of protection effect ([4]; 100 and 200 μM): the protection effects of them rapidly decreased; Relative liver cell protection (%) at 1 µM ([4]; compound 1 μM): 27.4%; Relative liver cell protection (%) at 10 µM ([4]; compound 10 μM): 39%; Relative liver cell protection (%) at 50 µM ([4]; compound 50 μM): 60%; Relative liver cell protection (%) at 100 µM ([4]; compound 100 μM): 33.1%; Relative liver cell protection (%) at 200 µM ([4]; compound 200 μM): 0%; concentration dependency of protection effect ([4]; range of 1~50 μM): the greater were the protection effects; Relative liver cell protection at 5 µg/mL [2, 5]: 21%; Relative liver cell protection at 50 µg/mL [2, 6]: 0%

With “2',3',4',6'-tetra-O-acetylglucosyl 2,3,23-tri-O-acetylurs-28-oate” as the molecule, how does the “Relative liver cell protection (%)” value [1, 5] read?
Its value is 79%.

And the “Relative liver cell protection (%)” value [1, 6]?
The value was 21%.

What about the “Relative liver cell protection (%)” value [2, 5] of the same molecule?
The value was 39%.

What about the “Relative liver cell protection (%)” value [2, 6] of the same molecule?
Its value is 34%.

With 2-methylasiatic acid as the molecule, how does the “Relative liver cell protection (%)” value [1, 5] read?
Its value is 43%.

What about the “Relative liver cell protection (%)” value [1, 6] of the same molecule?
The value was 62%.

And the “concentration dependency” value ([4]; 100 and 200 μM)?
Its value is “the protection effects of them rapidly decreased”.

And the “Relative liver cell protection (%)” value ([4]; compound 1 μM)?
Its value is 31.9%.

And the “Relative liver cell protection (%)” value ([4]; compound 10 μM)?
Its value is 40.3%.

What about the “Relative liver cell protection (%)” value ([4]; compound 50 μM) of the same molecule?
The value was 58.2%.

What about the “Relative liver cell protection (%)” value ([4]; compound 100 μM) of the same molecule?
The value was 43.9%.

And the “Relative liver cell protection (%)” value ([4]; compound 200 μM)?
Its value is 0.0%.

What about the “concentration dependency” value ([4]; range of 1~50 μM) of the same molecule?
Its value is “the greater were the protection effects”.

And the “Relative liver cell protection (%)” value [2, 5]?
The value was 29%.

What about the “Relative liver cell protection (%)” value [2, 6] of the same molecule?
Its value is 9%.
